Here are results for one compound from EPA's ToxValDB 9.5 (doi:10.2903/j.efsa.2018.5465).

One data set relates to Apis mellifera. The conditions noted are these: acute, mortality.
The next data set concerns Folsomia candida. The conditions noted are these: chronic/long-term; duration: 28 days.
In the next data set the test system is Colinus virginianus. Conditions: reproduction developmental.
In a further data set the test system is Canidae. Conditions: chronic; duration: 1 years; Dog Other; clinical signs.
For the next data set, the system named is Coturnix japonica. Conditions: acute; oral; mortality.
Another data set deals with Oncorhynchus mykiss. Conditions: acute; duration: 96 hours; mortality.
Another data set deals with Tagia sp. Conditions: chronic/long-term; duration: 56 days.
The next data set has as its system Daphnia magna. The conditions noted are these: chronic/long-term; duration: 21 days.
A further data set relates to Typhlodromus pyri. Put plainly: LR50; higher = less toxic. Conditions: acute; mortality.

The structures appear in SMILES notation. ≈ marks a conversion by molar mass, not a printed value.

As for `CCN(CC)C(=O)[C@@H](C)Oc1cccc2ccccc12` [(R)-N,N-Diethyl-2-(1-naphthyloxy)propionamide], the LD50 is more than 110 µg/piece in the data set with Apis mellifera (dermal); more than 110 µg/piece in the data set on Apis mellifera (oral, unspecified); more than 2000 mg/kg-day in the data set on Coturnix japonica; more than 2000 mg/kg-day with Rattus norvegicus (acute, oral, mortality). For the same compound, the NOEC was 47.7 mg/kg in the data set on Folsomia candida, 17.1 mg/kg in the data set on Tagia sp. and 0.1 mg/L with Daphnia magna. Also, the NOAEL (usually the highest dose or exposure tested at which no adverse effect was seen) came out at 309 mg/kg-day in the data set with Colinus virginianus; 50 mg/kg-day with Canidae; 30 mg/kg-day in the data set on Rattus norvegicus (chronic, duration: 2 years, body weight); 46 mg/kg-day in the data set on Rattus norvegicus (subchronic, duration: 90 days, oral, hematological). The LC50 (as a rule, the concentration that kills 50% of the test population) in the data set on Oncorhynchus mykiss was 11.2 mg/L (≈ 41.3 µM). The LR50 in the data set on Typhlodromus pyri is more than 4140 g/ha.
